Measurements from patent US20230072421A1, “TARGETED RADIOPHARMACEUTICALS FOR THE DIAGNOSIS AND TREATMENT OF PROSTATE CANCER” (Bayer AS, priority 2019, published 2023).

Columns and labels:
[1] = Biodistribution study in LNCaP tumor-bearing mice (Th227 counted in organs); type: in vivo, SCID mice
Outline: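 Th227 in excised, weighed organs was counted with a Germanium detector at predetermined time points (n=3 mice each). This followed one i.v. injection of radiolabelled compound into testosterone-supplemented SCID mice carrying LNCaP xenografts in Matrigel, dosed once tumors reached ~50 mm^2.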

VCaP cells = test: Cell proliferation assay (CellTiter-Glo, 5-day exposure), VCaP; type: cell-based; details: 4000 cells/well, Th-227 labelled at 375 kBq/nmol, mean of 1 to 6 experiments
Outline: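 CellTiter-Glo luminescence, day 0 (sister plates) vs day 5 of exposure to Th-227-labelled PSMA ligands. Seeding: VCaP 4000 cells/well; 22Rv1, C4-2, LNCaP 1000 cells/well; overnight 37 °C, 5% CO2 before treatment.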

O=C([O-])CN1CCN(CC(=O)[O-])CCN(CC(=O)NCC2CCC(C(=O)NC(Cc3ccc4ccccc4c3)C(=O)NCCCCC(NC(=O)NC(CCC(=O)O)C(=O)O)C(=O)O)CC2)CCN(CC(=O)[O-])CC1.[227Th+4] [Example 1-B-227Th, [^227Th]Thorium (3S,10S,14S)-3-[(naphthalen-2-yl)methyl]-1,4,12-trioxo-1-{(1r,4S)-4-[(2-{4,7,10-tris[(carboxy-kappaO)methyl]-1,4,7,10-tetraazacyclododecan-1-yl-kappa^4N^1,N^4,N^7,N^10}acetamido)methyl]cyclohexyl}-2,5,11,13-tetraazahexadecane-10,14,16-tricarboxylate]
Th-227 in Tumor ([1]; 6 hr, 500 kBq/kg, study b2999): 9.80 % ID Th-227/g organ | Th-227 in prostate ([1]; 6 hr, 500 kBq/kg, study b2999): 6.41 % ID Th-227/g organ | Th-227 in Blood ([1]; 24 h, 500 kBq/kg, study b2999): 0.01 % ID Th-227/g organ | Th-227 in Femur and tibia ([1]; 24 h, 500 kBq/kg, study b2999): 0.23 % ID Th-227/g organ | Th-227 in Kidneys ([1]; 24 h, 500 kBq/kg, study b2999): 26.81 % ID Th-227/g organ | Th-227 in Liver ([1]; 24 h, 500 kBq/kg, study b2999): 0.18 % ID Th-227/g organ | Th-227 in Salivary gland ([1]; 24 h, 500 kBq/kg, study b2999): 1.24 % ID Th-227/g organ | Th-227 in Spleen ([1]; 24 h, 500 kBq/kg, study b2999): 0.33 % ID Th-227/g organ | Th-227 in Tumor ([1]; 24 h, 500 kBq/kg, study b2999): 14.45 % ID Th-227/g organ | Th-227 in prostate ([1]; 24 h, 500 kBq/kg, study b2999): 0.00 % ID Th-227/g organ | Th-227 in Blood ([1]; 24 h, 1500 kBq/kg): 0.02% ID Th-227/g organ | Th-227 in Liver ([1]; 24 h, 1500 kBq/kg): 1.05% ID Th-227/g organ | Th-227 in Spleen ([1]; 24 h, 1500 kBq/kg): 1.24% ID Th-227/g organ | Th-227 in Tumor ([1]; 24 h, 1500 kBq/kg): 9.81% ID Th-227/g organ | Th-227 in bone ([1]; 24 h, 1500 kBq/kg): 9.38% ID Th-227/g organ | Th-227 in brain ([1]; 24 h, 1500 kBq/kg): 0.00% ID Th-227/g organ | Th-227 in kidney ([1]; 24 h, 1500 kBq/kg): 11.30% ID Th-227/g organ | Th-227 in large intestine ([1]; 24 h, 1500 kBq/kg): 0.12% ID Th-227/g organ | Th-227 in lung ([1]; 24 h, 1500 kBq/kg): 0.50% ID Th-227/g organ | Th-227 in muscle ([1]; 24 h, 1500 kBq/kg): 0.16% ID Th-227/g organ | Th-227 in prostate ([1]; 24 h, 1500 kBq/kg): 0.00% ID Th-227/g organ | Th-227 in salivary glands ([1]; 24 h, 1500 kBq/kg): 0.32% ID Th-227/g organ | Th-227 in small intestine ([1]; 24 h, 1500 kBq/kg): 0.23% ID Th-227/g organ | Th-227 in Blood ([1]; 72 h, 500 kBq/kg, study b2999): 0.00 % ID Th-227/g organ | Th-227 in Femur and tibia ([1]; 72 h, 500 kBq/kg, study b2999): 0.33 % ID Th-227/g organ | Th-227 in Kidneys ([1]; 72 h, 500 kBq/kg, study b2999): 19.30 % ID Th-227/g organ | Th-227 in Liver ([1]; 72 h, 500 kBq/kg, study b2999): 0.26 % ID Th-227/g organ | Th-227 in Salivary gland ([1]; 72 h, 500 kBq/kg, study b2999): 0.73 % ID Th-227/g organ | Th-227 in Spleen ([1]; 72 h, 500 kBq/kg, study b2999): 0.92 % ID Th-227/g organ | Th-227 in Tumor ([1]; 72 h, 500 kBq/kg, study b2999): 21.94 % ID Th-227/g organ | Th-227 in prostate ([1]; 72 h, 500 kBq/kg, study b2999): 0.00 % ID Th-227/g organ | Th-227 in Blood ([1]; 96 h, 1500 kBq/kg): 0.00% ID Th-227/g organ | Th-227 in Liver ([1]; 96 h, 1500 kBq/kg): 1.56% ID Th-227/g organ | Th-227 in Spleen ([1]; 96 h, 1500 kBq/kg): 2.79% ID Th-227/g organ | Th-227 in Tumor ([1]; 96 h, 1500 kBq/kg): 10.02% ID Th-227/g organ | Th-227 in bone ([1]; 96 h, 1500 kBq/kg): 10.31% ID Th-227/g organ | Th-227 in brain ([1]; 96 h, 1500 kBq/kg): 0.00% ID Th-227/g organ | Th-227 in kidney ([1]; 96 h, 1500 kBq/kg): 1.96% ID Th-227/g organ | Th-227 in large intestine ([1]; 96 h, 1500 kBq/kg): 0.12% ID Th-227/g organ | Th-227 in lung ([1]; 96 h, 1500 kBq/kg): 0.55% ID Th-227/g organ | Th-227 in muscle ([1]; 96 h, 1500 kBq/kg): 0.08% ID Th-227/g organ | Th-227 in prostate ([1]; 96 h, 1500 kBq/kg): 0.00% ID Th-227/g organ | Th-227 in salivary glands ([1]; 96 h, 1500 kBq/kg): 0.42% ID Th-227/g organ | Th-227 in small intestine ([1]; 96 h, 1500 kBq/kg): 0.21% ID Th-227/g organ | Th-227 in Blood ([1]; 168 h, 500 kBq/kg, study b2999): 0.00 % ID Th-227/g organ | Th-227 in Femur and tibia ([1]; 168 h, 500 kBq/kg, study b2999): 0.18 % ID Th-227/g organ | Th-227 in Kidneys ([1]; 168 h, 500 kBq/kg, study b2999): 3.56 % ID Th-227/g organ | Th-227 in Liver ([1]; 168 h, 500 kBq/kg, study b2999): 0.21 % ID Th-227/g organ | Th-227 in Salivary gland ([1]; 168 h, 500 kBq/kg, study b2999): 0.00 % ID Th-227/g organ | Th-227 in Spleen ([1]; 168 h, 500 kBq/kg, study b2999): 0.31 % ID Th-227/g organ | Th-227 in Tumor ([1]; 168 h, 500 kBq/kg, study b2999): 9.80 % ID Th-227/g organ | Th-227 in prostate ([1]; 168 h, 500 kBq/kg, study b2999): 0.00 % ID Th-227/g organ | Th-227 in Blood ([1]; 336 h, 500 kBq/kg, study b2999): 0.00 % ID Th-227/g organ | Th-227 in Femur and tibia ([1]; 336 h, 500 kBq/kg, study b2999): 0.25 % ID Th-227/g organ | Th-227 in Kidneys ([1]; 336 h, 500 kBq/kg, study b2999): 0.78 % ID Th-227/g organ | Th-227 in Liver ([1]; 336 h, 500 kBq/kg, study b2999): 0.17 % ID Th-227/g organ | Th-227 in Salivary gland ([1]; 336 h, 500 kBq/kg, study b2999): 0.00 % ID Th-227/g organ | Th-227 in Spleen ([1]; 336 h, 500 kBq/kg, study b2999): 0.15 % ID Th-227/g organ | Th-227 in Tumor ([1]; 336 h, 500 kBq/kg, study b2999): 7.78 % ID Th-227/g organ | Th-227 in prostate ([1]; 336 h, 500 kBq/kg, study b2999): 0.00 % ID Th-227/g organ | Proliferation assay on cancer cell lines by TTCs Default Pivot #3 IC50 [kBq/mL] VCap 4000cells 375kBq/nmol (mean) (VCaP cells): 0.38 kBq/mL
